Literature values, collected in patent publication US8268905B1, “Compositions containing poly(lactic acid), bacteriocin(s), plasticizers(s), and optionally pore forming agent(s), and methods or making” (The United States of America, as represented by the …, priority 2008, dated 2012).

Conditions: background statement

Substance: nisin
- maximal temperature at which nisin can retain its bioactivity: 120 °C
